Assay results taken from patent US7615555B2, “Piperidine derivatives as modulators of chemokine receptor CCR5” (AstraZeneca AB, priority 2004, dated 2009).

Experiments:
[1] = target: recombinant human CCR5 receptor (Homo sapiens, UniProt P51681); test: in vitro radioligand binding assay: inhibition of MIP-1α binding; conditions: displacement of 0.1 nM iodinated MIP-1α; membranes from Chinese hamster ovary cells expressing recombinant human CCR5; scintillation proximity; average if tested more than once
Chain of recombinant human CCR5 receptor (P51681 whole entry): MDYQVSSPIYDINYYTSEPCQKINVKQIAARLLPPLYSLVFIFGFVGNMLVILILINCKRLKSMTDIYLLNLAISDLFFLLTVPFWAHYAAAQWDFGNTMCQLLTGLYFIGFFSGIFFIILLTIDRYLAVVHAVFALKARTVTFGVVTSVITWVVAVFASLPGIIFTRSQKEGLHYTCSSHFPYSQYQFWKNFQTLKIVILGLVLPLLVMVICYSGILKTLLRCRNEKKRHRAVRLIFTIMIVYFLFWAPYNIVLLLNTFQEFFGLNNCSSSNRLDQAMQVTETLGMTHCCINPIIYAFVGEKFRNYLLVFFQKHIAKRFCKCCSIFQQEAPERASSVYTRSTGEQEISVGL
Procedure: The ability of compounds to inhibit the binding of MIP-1α was assessed by an in vitro radioligand binding assay. Membranes were prepared from Chinese hamster ovary cells which expressed the recombinant human CCR5 receptor. These membranes were incubated with 0.1 nM iodinated MIP-1α, scintillation proximity beads and various concentrations of the compounds of the invention in 96-well plates. The amount of iodinated MIP-1α bound to the receptor was determined by scintillation counting. Competition curves were obtained for compounds and the concentration of compound which displaced 50% of bound iodinated MIP-1α was calculated (IC50).
In Table XII the results are presented as Pic50 values. A Pic50 value is the negative log (to base 10) of the IC50 result, so an IC50 of 1 μM (that is 1×10^−6M) gives a Pic50 of 6. If a compound was tested more than once then the data below is an average of the probative tests results.

IC50 [1] [nM]	melting point [°C]	SMILES
31.6	–	Cc1nnc(C(C)C)n1C1CCN(CC[C@@H](c2ccccc2)N2CCN(S(=O)(=O)c3ccccc3)CC2)CC1 [Table II Compound 1, 1-{(1S)-3-[4-(3-isopropyl-5-methyl-4H-1,2,4-triazol-4-yl)piperidin-1-yl]-1-phenylpropyl}-4-(phenylsulfonyl)piperazine]
251	–	CCS(=O)(=O)N1CCN(C(CCN2CCC(n3cnc4cc(S(C)(=O)=O)ccc43)CC2)c2ccccc2)CC1 (stereo not shown) [Table I Compound 1, 1-(1-{3-[4-(ethylsulfonyl)piperazin-1-yl]-3-phenylpropyl}piperidin-4-yl)-5-(methylsulfonyl)-1H-benzimidazole]
0.501	161	CS(=O)(=O)c1ccc2c(c1)ncn2C1CCN(CC[C@@H](c2cc(F)cc(F)c2)C2CCN(S(C)(=O)=O)CC2)CC1 [Table II Compound 5, 1-(1-{(3R)-3-(3,5-difluorophenyl)-3-[1-(methylsulfonyl)piperidin-4-yl]propyl}piperidin-4-yl)-5-(methylsulfonyl)-1H-benzimidazole]
